Test results published in paper PMC6002460, “Pharmacological evaluation of new constituents of “Spice”: synthetic cannabinoids based on indole, indazole, benzimidazole and carbazole scaffolds” (Forensic Toxicology, 2018).
“Also recorded” adds a separate entry of the source. Like-named read-outs stand apart in the source and are kept apart here.

Legend:
[1] = target: T1, human CB2 receptor (Homo sapiens, UniProt P34972); experiment: biochemical; type: binding; details: [3H]CP55,940 0.1 nM, CHO cell membranes; read-out: Ki ± SEM Human CB2
T1 construct: expressed in transfected cells; host or cells: CHO cells (membrane preparations)

[2] = target: CB1 receptor; details: cited from earlier work
[3] = target: T2, human CB1 receptor (Homo sapiens, UniProt P21554); experiment: biochemical; type: binding; details: [3H]CP55,940 0.1 nM, CHO cell membranes; read-out: Ki ± SEM Human CB1
T2 construct: expressed in transfected cells; host or cells: CHO cells (membrane preparations)

[4] = target: CB2 receptor; details: cited from earlier work
[5] = target: T2, human CB1 receptor; experiment: cAMP accumulation assay, CHO cells stably expressing CB1; type: cell-based; details: for CB1 receptor activation in cAMP accumulation assay (in words): compound at 10 µM, normalized to CP55,940 (1 µM); for EC50: forskolin 10 µM, read-out: EC50 CB1 receptor activation, cAMP accumulation
Method: (§1) cAMP accumulation assays were performed also as previously described. Briefly, CHO cells stably expressing the respective human CB receptor subtype CB1 or CB2 were seeded overnight. […] After incubation for 15 min the buffer was removed, and the cells were lyzed. The amount of cAMP was determined in a radioligand binding assay by incubating 50 µL of the cell lysate with 3 nM [^3H]cAMP in the presence of protein preparations from bovine adrenal glands (cAMP binding protein). Bound and unbound radioligand were separated by rapid filtration through GF/B filters, and radioactivity was determined by liquid scintillation counting. To test for antagonistic activity, test compounds were added to Hank’s buffered salt solution (HBSS) containing 10% dimethyl sulfoxide (DMSO), 10 min after the application of Ro-20-1724, and the mixture was incubated for 20 min at 37 °C.
(§2) As a next step, we investigated the compounds in cAMP accumulation assays, to obtain information on their functionality (Fig. 3). CB receptors are Gi protein-coupled and thus reduce the levels of cAMP in the cells upon activation.

[6] = target: T3, human GPR18 (Homo sapiens, UniProt Q14330); experiment: β-Arrestin PathHunter assay, recombinant CHO cells expressing GPR18; type: cell-based; details: for Human GPR18 % activation / Human GPR18 % inhibition: value in parentheses
T3 construct: host or cells: CHO cells
T3 sequence (Q14330 1-331): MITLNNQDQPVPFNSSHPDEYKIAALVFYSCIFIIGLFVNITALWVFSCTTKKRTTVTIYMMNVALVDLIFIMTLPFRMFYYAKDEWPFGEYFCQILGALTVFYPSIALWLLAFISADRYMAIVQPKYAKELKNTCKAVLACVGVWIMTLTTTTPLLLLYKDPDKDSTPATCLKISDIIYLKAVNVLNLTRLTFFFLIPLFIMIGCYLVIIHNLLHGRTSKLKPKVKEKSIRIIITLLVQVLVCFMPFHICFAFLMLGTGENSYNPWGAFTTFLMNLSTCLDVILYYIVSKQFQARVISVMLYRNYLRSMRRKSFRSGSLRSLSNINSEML
Method: (§3) β-Arrestin assays were performed in recombinant CHO cells expressing either the human GPR18 or the human GPR55 as described before using the β-galactosidase enzyme fragment complementation technology (β-arrestin PathHunter™ assay; DiscoverX, Fremont, CA, USA).
(§4) The orphan receptors GPR18 and GPR55 can interact with certain natural and synthetic cannabinoids. […] Therefore, we investigated the new series of indole, indazole, benzimidazole and carbazole-derived structures in β-arrestin assays at GPR18 and GPR55 (Table 2). […] For the lipophilic substitutions, the following rank order of potency was observed: ethyl > methyl > chloro > fluoro. Therefore, it can be concluded that a lipophilic substitution in position 4 of the naphthyl residue was a requirement for GPR55 inhibition.

[7] = target: T1, human CB2 receptor; experiment: cAMP accumulation assay, CHO cells stably expressing CB2; type: cell-based; details: for CB2 receptor activation in cAMP accumulation assay (in words): compound at 10 µM, normalized to CP55,940 (1 µM)
Method: as §1, §2

[8] = target: T4, human GPR55 (Homo sapiens, UniProt Q9Y2T6); experiment: β-Arrestin PathHunter assay, recombinant CHO cells expressing GPR55; type: cell-based; details: for Human GPR55 % activation / Human GPR55 % inhibition: value in parentheses; for Human GPR55 % inhibition: antagonist mode versus LPI 1 µM
T4 construct: host or cells: CHO cells
Method: as §3, §4

[9] = target: CB2 receptor; details: membrane potential assay, cited from earlier work
[10] = target: CB1 receptor; details: membrane potential assay, cited from earlier work
[11] = target: CB1 receptor; parameters: method as in Buchler et al. [37]; details: versus 0.5 nM [3H]CP55,940; ref Buchler et al. [37]; cited from earlier work
[12] = target: CB1 receptor; parameters: method as in Wiley et al. [41]; details: versus 0.62 nM [3H]CP55,940; ref Wiley et al. [41]; cited from earlier work
[13] = target: CB2 receptor; parameters: method as in Wiley et al. [41]; details: versus 0.62 nM [3H]CP55,940; ref Wiley et al. [41]; cited from earlier work
[14] = target: CB2 receptor; parameters: method as in Bowden et al. [43]; details: HTRF cAMP accumulation; ref Bowden et al. [43]; cited from earlier work
[15] = agonist mode, read-out: Human GPR18 EC50
[16] = agonist mode, read-out: Human GPR55 EC50
[17] = antagonist mode versus lysophosphatidylinositol (LPI, 1 µM), read-out: Human GPR55 IC50

T2 sequence (P21554 whole entry): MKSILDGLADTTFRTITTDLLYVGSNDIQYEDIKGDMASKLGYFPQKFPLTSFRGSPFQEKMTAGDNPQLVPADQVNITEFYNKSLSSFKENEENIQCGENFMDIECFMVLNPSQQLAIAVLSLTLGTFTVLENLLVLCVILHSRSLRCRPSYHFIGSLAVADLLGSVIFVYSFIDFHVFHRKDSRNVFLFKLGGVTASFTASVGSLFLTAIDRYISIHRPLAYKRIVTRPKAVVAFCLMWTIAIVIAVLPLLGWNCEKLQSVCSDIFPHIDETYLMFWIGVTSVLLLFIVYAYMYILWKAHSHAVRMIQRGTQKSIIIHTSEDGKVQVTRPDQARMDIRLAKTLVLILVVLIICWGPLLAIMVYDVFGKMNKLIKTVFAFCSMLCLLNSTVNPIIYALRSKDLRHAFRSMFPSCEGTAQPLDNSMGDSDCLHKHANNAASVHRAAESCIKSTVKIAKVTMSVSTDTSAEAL
T4 sequence (Q9Y2T6 whole entry): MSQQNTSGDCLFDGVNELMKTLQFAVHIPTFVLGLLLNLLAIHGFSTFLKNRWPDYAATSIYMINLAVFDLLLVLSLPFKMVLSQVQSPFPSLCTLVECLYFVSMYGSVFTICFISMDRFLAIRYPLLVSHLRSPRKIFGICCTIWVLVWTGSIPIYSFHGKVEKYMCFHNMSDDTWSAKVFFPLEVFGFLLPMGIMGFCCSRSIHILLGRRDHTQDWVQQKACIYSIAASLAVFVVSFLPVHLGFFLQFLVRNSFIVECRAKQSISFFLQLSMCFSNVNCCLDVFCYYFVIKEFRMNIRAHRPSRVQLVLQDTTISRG
T1 sequence (P34972 whole entry): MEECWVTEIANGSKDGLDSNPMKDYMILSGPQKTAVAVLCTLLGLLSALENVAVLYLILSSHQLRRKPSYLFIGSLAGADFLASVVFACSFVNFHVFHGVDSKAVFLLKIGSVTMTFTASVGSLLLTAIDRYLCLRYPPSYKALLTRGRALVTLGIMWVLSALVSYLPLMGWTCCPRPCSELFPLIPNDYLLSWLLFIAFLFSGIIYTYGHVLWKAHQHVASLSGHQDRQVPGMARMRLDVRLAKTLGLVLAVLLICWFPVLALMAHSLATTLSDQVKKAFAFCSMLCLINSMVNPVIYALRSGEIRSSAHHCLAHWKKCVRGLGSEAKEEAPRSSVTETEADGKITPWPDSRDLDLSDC

Row | SMILES | Ki [1] [nM] | Ki [3] [nM] | EC50 [6] [µM] | IC50 [6] [µM] | Human GPR18 % activation ([6]; agonist mode) | EC50 [8] [µM] | IC50 [8] [µM] | Human GPR55 % activation ([8]; agonist mode) [%] | Human GPR55 % inhibition [8] [%] | Human GPR18 % inhibition ([6]; antagonist mode) | also measured
1 | CCCCCn1cc(C(=O)c2cccc3ccccc23)c2ccccc21 [compound 3, JWH-018, reference compound] | 2.24 ± 1.2 | 1.51 ± 0.67 | – | – | – | – | – | – | – | – | Ki [2]: 9 nM; Ki [4]: 2.9 nM
2 | COC(=O)[C@@H](NC(=O)c1nn(CCCCCF)c2ccccc12)C(C)(C)C [compound 11, 5F-ADB] | 5.99 ± 2.47 | 23.3 ± 10.2 | > 10 | > 10 | > 10 (10%) | > 10 | > 10 | 0 | 6 | – | CB1 receptor activation in cAMP accumulation assay (in words) [5]: partial activation; CB2 receptor activation in cAMP accumulation assay (in words) [7]: full agonists; EC50 ([9]; ref Banister et al. [38]): 7.5 nM; EC50 ([10]; ref Banister et al. [38]): 0.59 nM
3 | CC(C)[C@H](NC(=O)c1nn(CCCCCF)c2ccccc12)C(N)=O [compound 16, 5F-AB-PINACA] | 3.77 ± 0.25 | 4.96 ± 1.37 | > 10 | > 10 | 12% | > 10 | > 10 | 15 | – | > 10 (10%) | EC50 ([9]; ref Banister et al. [42]): 2.6 nM; EC50 ([10]; ref Banister et al. [42]): 0.48 nM
4 | CC(C)[C@H](NC(=O)c1nn(Cc2cccc(F)c2)c2ccccc12)C(N)=O [compound 18, AB-FUBINACA (3-F-benzyl-isomer)] | 52.2 ± 10.2 | 12.6 ± 0.7 | > 10 | > 10 | > 10 (10%) | > 10 | > 10 | 11 | – | – | Ki [11]: 51.1 nM
5 | CC(C)[C@H](NC(=O)c1nn(Cc2ccccc2F)c2ccccc12)C(N)=O [compound 19, AB-FUBINACA (2-F-benzyl-isomer)] | 25 ± 6.1 | 6.91 ± 3.42 | > 10 | > 10 | 11% | > 10 | > 10 | 15 | – | – | Ki [11]: 4.69 nM
6 | CC(C)[C@H](NC(=O)c1nn(CC2CCCCC2)c2ccccc12)C(N)=O [compound 20] | 1.91 ± 0.2 | 1.72 ± 0.14 | > 10 | > 10 | 13% | > 10 | > 10 | 8 | – | 11% | Ki [12]: 0.78 nM; Ki [13]: 0.45 nM
7 | CC(C)(C)[C@H](NC(=O)c1cn(CCCCCF)c2ccccc12)C(N)=O [compound 21, 5F-ADBICA] | 1.83 ± 0.11 | 2.72 ± 0.35 | > 10 | > 10 | 27% | > 10 | > 10 | 8 | – | – | EC50 ([9]; ref Banister et al. [42]): 1.2 nM; EC50 ([10]; ref Banister et al. [42]): 0.77 nM
8 | CC(C)(C)[C@H](NC(=O)c1nn(CCCCCF)c2ccccc12)C(N)=O [compound 23, 5F-ADB-PINACA] | 0.694 ± 0.078 | 1.43 ± 0.69 | > 10 | > 10 | 9% | > 10 | > 10 | 18 | – | 21% | EC50 ([9]; ref Banister et al. [42]): 2.1 nM; EC50 ([10]; ref Banister et al. [42]): 0.24 nM
9 | NC(=O)[C@H](Cc1ccccc1)NC(=O)c1nn(Cc2ccc(F)cc2)c2ccccc12 [compound 29, APP-FUBINACA] | 58.1 ± 17.3 | 56.3 ± 19.8 | > 10 | > 10 | 4% | > 10 | > 10 | 26 | – | 21% | CB1 receptor activation in cAMP accumulation assay (in words) [5]: partial activation; Ki [11]: 47.6 nM; CB2 receptor activation in cAMP accumulation assay (in words) [7]: full agonists
10 | NC(=O)[C@H](Cc1ccccc1)NC(=O)c1nn(CC2CCCCC2)c2ccccc12 [compound 30] | 4.39 ± 0.59 | 9.81 ± 4.56 | > 10 | ~10 | 5% | > 10 | > 10 | 11 | 9 | 57% | Ki [11]: 47.5 nM
11 | CCCCCn1cc(C(=O)NC(C)(C)c2ccccc2)c2ccccc21 [compound 31, Cumyl-PICA] | 24 ± 8.8 | 3.27 ± 0.32 | > 10 | > 10 | 19% | > 10 | > 10 | 11 | 3 | – | EC50 ([9]; ref Longworth et al. [51]): 58.2 nM; EC50 ([10]; ref Longworth et al. [51]): 4.2 nM; EC50 [14]: 13 nM
12 | O=C(c1ccc2c(c1)c1ccccc1n2CCCCCF)c1cccc2ccccc12 [compound 40, EG-2201] | 4.36 ± 2.91 | 22.4 ± 12.8 | – | – | 3% | – | – | – | 3 | 7% | Emax ([5]; CHO, read-out: efficacy at CB1 compared to maximum response of CP55,940, cAMP accumulation): 94%; functional behaviour at CB1 receptor (in words) ([5]; cAMP accumulation): agonistic behavior; EC50 [5]: 15.6 nM; EC50 [6, 15]: > 10 µM; IC50 ([6]; antagonist mode, read-out: Human GPR18 IC50): > 10 µM; Emax ([7]; CHO, read-out: efficacy at CB2 compared to maximum response of CP55,940, cAMP accumulation): 77%; functional behaviour at CB2 receptor (in words) ([7]; cAMP accumulation): agonistic behavior; EC50 ([7]; forskolin 10 µM, read-out: EC50 CB2 receptor activation, cAMP accumulation): 5.65 nM; EC50 [8, 16]: > 10 µM; IC50 [8, 17]: > 10 µM
13 | COC(=O)C(NC(=O)c1ccc2c(c1)c1ccccc1n2CC1CCCCC1)C(C)(C)C (centres unmarked) [compound 41, MDMB-CHMCZCA] | 6.67 ± 1.4 | 5.75 ± 1.65 | – | – | – | – | – | – | 25 | – | functional behaviour at CB1 receptor (in words) ([5]; cAMP accumulation): full efficacy; also recorded: agonist; EC50 [5]: 120 nM; EC50 [6, 15]: > 10 µM; IC50 ([6]; extrapolated value, full curve could not be determined due to limited solubility, read-out: Human GPR18 IC50 (extrapolated)): 9.66 ± 1.2 µM; functional behaviour at CB2 receptor (in words) ([7]; cAMP accumulation): completely lacked CB2 receptor activation; also recorded: antagonist; CB2 receptor activation in cAMP accumulation assay (in words) [7]: failed to evoke an agonistic response; IC50 ([7]; read-out: IC50 inhibition of CB2 receptor activation, cAMP accumulation): 807 ± 137 nM; EC50 [8, 16]: > 10 µM; IC50 [8, 17]: > 10 µM
14 | COc1ccc(C(=O)c2c(C)n(CCN3CCOCC3)c3cc(I)ccc23)cc1 [compound 43, AM-630] | – | – | – | – | – | – | – | – | – | – | function at CB1 (in words) [2]: partial agonist; Ki [4]: 31.2 ± 12.4 nM; function at CB2 (in words) [4]: antagonist
15 | Cc1ccc(Cn2nc(C(=O)N[C@@H]3C(C)(C)[C@@H]4CC[C@@]3(C)C4)cc2-c2ccc(Cl)c(C)c2)cc1 [compound 44, SR-144,528] | – | – | – | – | – | – | – | – | – | – | Ki [2]: 437 ± 33 nM; function at CB2 (in words) [4]: antagonist
16 | CC1=CC[C@@H]2[C@@H](C1)c1c(O)cc(C(C)(C)CCCCCCBr)cc1OC2(C)C [compound 45, AM11542] | – | – | – | – | – | – | – | – | – | – | Ki ([2]; co-crystallized agonist): 0.11 nM
